From patent US9265845B2, “Imaging methods using engineered integrin binding peptides” (The Board of Trustees of the Leland Stanford Junior …, priority 2006, dated 2016)
Entries after “also recorded” stand apart in the source; their conditions may differ.

Assays:
[1] = system: U87MG glioblastoma cells; assay: Blocking of U87MG cell adhesion to fibronectin-coated plates; assay type: cell-based
Text: (§1) The present engineered peptides may be used in a variety of ways. If the peptides are attached to a surface, they may be used to attract/recruit cells to grow on the surface. For example, the present peptides may be applied to prosthetic devices, implants, bone grafts, and the like to promote tissue growth and healing at the site. They may be attached to culture dishes and promote attachment and differentiation of cells in culture. In addition, the present engineered peptides may be used to modulate cell binding to selected integrins such as α5β1, αvβ3 and αvβ5, particularly αvβ3, by adding the peptides to a cell culture to prevent cells expressing these integrins from adhering to a substrate. […] Also, the present 2.5F, 2.5D and 1.5B peptides were tested for blocking adhesion of U87MG glioblastoma cells to fibronectin-coated plates.
(§2) In another experiment, the ability of engineered knottin peptides to block U87MG cell adhesion to vitronectin- and fibronectin-coated microtiter plates. Vitronectin is a natural ligand for several integrins, including αvβ3 and αvβ5. The RGD-containing peptides were all able to inhibit U87MG cell adhesion to vitronectin-coated plates in a dose-responsive manner. […] Fibronectin also binds to several integrins, (including αvβ3 and α5β1), but the α5β1 integrin receptor is generally selective for fibronectin.

[2] = target: αvβ5 integrin (Homo sapiens, UniProt P06756+P18084); assay: Competition of 125I-echistatin to detergent-solubilized plate-coated integrin; assay type: binding; conditions: 0.06 nM 125I echistatin, 5 nM and 50 nM peptide
Method: (§3) FIG. 10A through FIG. 10D is a series of histograms showing binding specificities to integrins αvβ3, αvβ5, α5β1, and αiibβ3 for engineered EETI-RGD peptides compared to controls. Error bars represent experiments performed in triplicate. Competition binding of 0.06 nM ^125I echistatin with 5 nM (black bars) and 50 nM (grey bars) unlabeled peptide to plate-coated integrins was measured. […] The engineered peptides have very little binding to αiibβ3 integrin.
(§4) This was done by competition of ^125I-echistatin to detergent-solubilized integrin receptors coated onto microtiter plates (see FIG. 10). […] This is consistent with previous studies which have shown αv integrin receptors can accommodate a wide range of RGD-containing cyclic structures. […] However, since α5β1 integrins are expressed on many tumors and are all involved in mediating angiogenesis and metastasis, a broad spectrum agent that targets all three integrins will be useful for diagnostic and therapeutic applications. With the exception of echistatin, all of the RGD-containing peptides bound weakly to the αiibβ3 receptor, showing the specificity of the present peptides for the αv and α5-containing integrin heterodimers. This characteristic is valuable for molecular imaging and therapeutic applications, since binding to αiibβ3 on platelet cells prevents blood clotting and would lead to non-specific in vivo effects.

[3] = target: α5β1 integrin (Homo sapiens, UniProt P05556+P08648); assay: as above; assay type: binding; conditions: 0.06 nM 125I echistatin, 5 nM and 50 nM peptide
Method: as §3, §4

[4] = target: αvβ3 integrin (Homo sapiens, UniProt P05106+P06756); assay: as above; assay type: binding; conditions: 0.06 nM 125I echistatin, 5 nM and 50 nM peptide
Method: as §3, §4

[5] = system: U87MG glioblastoma cells; assay: Blocking of U87MG cell adhesion to vitronectin-coated plates; assay type: cell-based; conditions: vitronectin-coated plates
Text: as §1, §2
Whether the engineered AgRP peptides could block vitronectin-mediated adhesion to the U87MG cells was tested using an analogous assay. […] The AgRP peptides may not effectively block U87MG adhesion compared to the K562-αvβ3 cells because the αvβ5 integrins co-expressed on the surface of the U87MG cells could also contribute to vitronectin-mediated adhesion and compensate for the loss of αvβ3 integrin function.

[6] = system: U87MG tumor; assay: MicroPET imaging and biodistribution of radiolabeled peptides in U87MG tumor-bearing mice; assay type: in vivo, mouse
Method: MicroPET imaging of tumor-bearing mice is performed on a microPET R4 rodent model scanner (Concorde Microsystems Inc, Knoxyille, Tenn.). U87MG tumor bearing mice are injected with PET imaging agent via the tail vein. At various times post injection, the mice are anesthetized with 2% isoflurane, and 10 min static scans are obtained. Images are reconstructed by a two-dimensional ordered expectation maximum subset algorithm as previously described. Regions of interest (ROI) are drawn over the tumor on decay corrected whole body images and ROI derived % injected dose per gram of tissue is determined. Statistical analysis is performed using the student's t-test for unpaired data. A 95% confidence level is used to determine statistical significance.
Female athymic mice bearing U87MG tumors were injected with 80-150 μCi of ^64Cu-DOTA-knottin 2.5D or 7-9 μCi of [^18F]-FB-E[knottin 2.5D]. Static images were taken at various timepoints post injection using a microPET R4 rodent model scanner (Concorde Microsystems Inc, Knoxyille, Tenn.). […] Uptake was also observed in the kidney as both probes cleared through the bladder.
Mice are sacrificed by exanguinations at various time points postinjection. Blood, tumor and the major organs and tissues are collected, wet-weighed and measured in a γ-counter. The % injected dose per gram is determined for each sample. For each mouse, radioactivity of the tissue samples is calibrated against a known aliquot of the injectate. Values are reported as the mean±standard deviation.
The following Table 10 quantifies the ^64Cu-DOTA knottin uptake by direct tissue sampling of the mice up to 24 hours post injection and is reported in % ID (percent injected dose)/gram. Similar results were obtained with [^18F]-FB-E[knottin 2.5D].
A U87MG glioblastoma xenograft mouse model was used. U87MG cells were maintained at 37° C. in a humidified atmosphere containing 5% CO2 in Dulbecco's modified eagle medium, 10% heat-inactivated fetal bovine serum, and penicillin-streptomycin (all from Invitrogen). Animal procedures were carried out according to a protocol by Stanford University Administrative Panels on Laboratory Animal Care. Female athymic nude mice (nu/nu), obtained at 4-6 weeks of age (Charles River Laboratories, Inc.), were injected subcutaneously in the right or left shoulder with 2×10^7 U87MG glioblastoma cells suspended in 100 μL of PBS. Mice were used for in vivo imaging studies when their tumors reached approximately 8 to 10 millimeters in diameter.
U87MG tumor-bearing mice (n=3 or more for each probe) were injected with ˜100 μCi of ^64Cu-DOTA-conjugated peptides via the tail vein and imaged with a microPET R4 rodent model scanner (Siemens Medical) using 3 or 5 min static scans. […] Images were reconstructed by a two dimensional ordered expectation maximum subset algorithm and calibrated as previously described (Wu, Y, Zhang, X, Xiong, Z, et al. microPET imaging of glioma integrin {alpha}v{beta}3 expression using (64)Cu-labeled tetrameric RGD peptide. J Nucl Med 2005; 46:1707-18). ROIs were drawn over the tumor on decay-corrected whole body images using ASIPro VM software (Siemens Medical). The mean counts per pixel per minute were obtained from the ROI and converted to counts per milliliter per minute with a calibration constant. ROIs were converted to counts/g/min, and % ID/g values were determined assuming a tissue density of 1 g/mL. No attenuation correction was performed.

SMILES	blocking of U87MG cell adhesion to fibronectin, in words [1]	binding to αvβ5 integrin, in words [2]	binding to α5β1 integrin, in words [3]	binding to αvβ3 integrin, in words [4]	blocking of U87MG cell adhesion to vitronectin, in words [5]	liver uptake, in words ([6]; 64Cu-DOTA-labeled peptides, compared to 64Cu-DOTA-c(RGDyK))	tumor/blood ratios, in words ([6]; PET studies, 4 h post injection, compared to 2.5D)	PET tumor targeting / imaging signal, in words ([6]; radiolabeled peptides, U87MG tumor-bearing mice)
CC[C@H](C)[C@@H]1NC(=O)[C@H]([C@@H](C)O)NC(=O)[C@@H](NC(=O)CN)CSSC[C@@H]2NC(=O)CNC(=O)[C@H](C)NC(=O)[C@H](CC(C)C)NC(=O)[C@@H]3CSSC[C@@H](C(=O)NCC(=O)O)NC(=O)[C@H](Cc4ccccc4)NC(=O)CNC(=O)[C@H](CC(N)=O)NC(=O)[C@@H]4CCCN4C(=O)CNC(=O)[C@H](CSSC[C@H](NC(=O)[C@H](CCC(=O)O)NC(=O)[C@H](CO)NC(=O)[C@@H]4CCCN4C(=O)[C@H](C)NC(=O)[C@H](Cc4c[nH]c5ccccc45)NC(=O)[C@H](CC(=O)O)NC(=O)CNC(=O)[C@H](CCCNC(=N)N)NC(=O)CNC1=O)C(=O)N[C@@H](CO)C(=O)N[C@@H](CCC(N)=O)C(=O)N[C@@H](CC(=O)O)C(=O)N[C@@H](CO)C(=O)N[C@@H](CC(=O)O)C(=O)N3)NC(=O)[C@H](C(C)C)NC2=O [1.5B]	only echistatin and polypeptide 2.5F blocked adhesion	strongest levels of binding	only minimal binding	strongest levels of binding				
CC(C)C[C@@H]1NC(=O)[C@@H]2CSSC[C@@H](C(=O)NCC(=O)O)NC(=O)[C@H](Cc3ccccc3)NC(=O)CNC(=O)[C@H](CC(N)=O)NC(=O)[C@@H]3CCCN3C(=O)CNC(=O)[C@@H]3CSSC[C@H](NC(=O)[C@H]([C@@H](C)O)NC(=O)[C@H](CC(C)C)NC(=O)[C@@H]4CCCN4C(=O)[C@@H]4CCCN4C(=O)[C@H](CC(N)=O)NC(=O)[C@H](CC(=O)O)NC(=O)CNC(=O)[C@H](CCCNC(=N)N)NC(=O)[C@@H]4CCCN4C(=O)[C@H](CCCNC(=N)N)NC(=O)[C@@H]4CCCN4C(=O)[C@@H](NC(=O)CN)CSSC[C@H](NC(=O)CNC(=O)[C@H](C)NC1=O)C(=O)N[C@@H](C(C)C)C(=O)N3)C(=O)N[C@@H](CO)C(=O)N[C@@H](CCC(N)=O)C(=O)N[C@@H](CC(=O)O)C(=O)N[C@@H](CO)C(=O)N[C@@H](CC(=O)O)C(=O)N2 [2.5F]	blocked adhesion; also recorded: able to block	strongest levels of binding	binds with strong affinity	strongest levels of binding	blocked adhesion better than controls	lower liver uptake	much higher tumor/blood ratios	slower tumor washout compared to 2.5D
